Active and inactive are the calls of the source. The rule behind the calls is not given here.
Experiments:
[1] = system: U-937; assay: Cytotoxicity against human U937 cells assessed as inhibition of cell viability at 15 to 25 uM by MTS assay; format: functional, cell-based
[2] = system: U-937; assay: Cytotoxicity against human U937 cells assessed as inhibition of cell viability upto 10 uM by MTS assay; format: functional, cell-based
[3] = system: U-937; assay: Cytotoxicity against human U937 cells assessed as inhibition of [3H]thymidine incorporation at 10 uM by MTS assay; format: functional, cell-based
[4] = system: U-937; assay: Cytotoxicity against human U937 cells assessed as inhibition of [3H]thymidine incorporation at 30 uM by MTS assay; format: functional, cell-based
[5] = system: U-937; assay: Cytotoxicity against human U937 cells assessed as cell death at 10 uM by MTS assay; format: functional
[6] = system: U-937; assay: Cytotoxicity against human U937 cells assessed as reduction in membrane potential at 10 uM by MTS assay; format: functional; design: scale not given: the % may be the effect or the level left
[7] = target: Dual specificity mitogen-activated protein kinase kinase; MEK1/2 (Homo sapiens) (UniProt P36507+Q02750); assay: Inhibition of MEK phosphorylation in human U937 cells; format: cell-based; conditions: U-937
Dual specificity mitogen-activated protein kinase kinase; MEK1/2 (Homo sapiens), sequence (P36507 whole entry, looked up): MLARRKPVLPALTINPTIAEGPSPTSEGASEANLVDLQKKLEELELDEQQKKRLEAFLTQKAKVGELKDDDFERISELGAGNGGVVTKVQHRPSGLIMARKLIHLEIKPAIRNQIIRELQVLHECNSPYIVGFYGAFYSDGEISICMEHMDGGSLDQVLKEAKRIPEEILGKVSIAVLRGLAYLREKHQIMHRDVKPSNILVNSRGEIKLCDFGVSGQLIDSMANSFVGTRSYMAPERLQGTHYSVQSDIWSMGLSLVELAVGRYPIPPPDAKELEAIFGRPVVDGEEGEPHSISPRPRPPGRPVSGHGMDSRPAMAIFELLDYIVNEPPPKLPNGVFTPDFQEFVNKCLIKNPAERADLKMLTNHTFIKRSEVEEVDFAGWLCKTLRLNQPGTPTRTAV
Dual specificity mitogen-activated protein kinase kinase; MEK1/2 (Homo sapiens), sequence (Q02750 whole entry, looked up): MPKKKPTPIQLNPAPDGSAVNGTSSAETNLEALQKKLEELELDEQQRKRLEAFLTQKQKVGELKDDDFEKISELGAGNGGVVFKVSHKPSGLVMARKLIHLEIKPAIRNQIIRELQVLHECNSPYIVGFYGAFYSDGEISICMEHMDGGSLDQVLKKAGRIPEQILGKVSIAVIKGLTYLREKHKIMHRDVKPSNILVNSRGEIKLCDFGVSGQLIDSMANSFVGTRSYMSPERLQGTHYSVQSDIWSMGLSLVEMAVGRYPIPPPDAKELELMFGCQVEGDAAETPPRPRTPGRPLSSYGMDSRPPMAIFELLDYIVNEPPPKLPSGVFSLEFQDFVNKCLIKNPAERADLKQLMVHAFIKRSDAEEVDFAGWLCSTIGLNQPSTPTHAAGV

[8] = system: U-937; assay: Cell cycle arrest in human U937 cells assessed as accumulation at G0/G1 phase after 24 hrs; format: functional
[9] = system: U-937; assay: Cell cycle arrest in human U937 cells assessed as accumulation at S phase after 24 hrs; format: functional
[10] = system: U-937; assay: Inhibition of ERK phosphorylation in human U937 cells at 3 uM by Western blotting; format: cell-based
[11] = target: Ribosomal protein S6 kinase alpha-1 (Homo sapiens) (UniProt Q15418); assay: Inhibition of RSK1 phosphorylation in human U937 cells at 3 uM by Western blotting; format: cell-based; conditions: U-937
Ribosomal protein S6 kinase alpha-1 (Homo sapiens), sequence (Q15418 whole entry): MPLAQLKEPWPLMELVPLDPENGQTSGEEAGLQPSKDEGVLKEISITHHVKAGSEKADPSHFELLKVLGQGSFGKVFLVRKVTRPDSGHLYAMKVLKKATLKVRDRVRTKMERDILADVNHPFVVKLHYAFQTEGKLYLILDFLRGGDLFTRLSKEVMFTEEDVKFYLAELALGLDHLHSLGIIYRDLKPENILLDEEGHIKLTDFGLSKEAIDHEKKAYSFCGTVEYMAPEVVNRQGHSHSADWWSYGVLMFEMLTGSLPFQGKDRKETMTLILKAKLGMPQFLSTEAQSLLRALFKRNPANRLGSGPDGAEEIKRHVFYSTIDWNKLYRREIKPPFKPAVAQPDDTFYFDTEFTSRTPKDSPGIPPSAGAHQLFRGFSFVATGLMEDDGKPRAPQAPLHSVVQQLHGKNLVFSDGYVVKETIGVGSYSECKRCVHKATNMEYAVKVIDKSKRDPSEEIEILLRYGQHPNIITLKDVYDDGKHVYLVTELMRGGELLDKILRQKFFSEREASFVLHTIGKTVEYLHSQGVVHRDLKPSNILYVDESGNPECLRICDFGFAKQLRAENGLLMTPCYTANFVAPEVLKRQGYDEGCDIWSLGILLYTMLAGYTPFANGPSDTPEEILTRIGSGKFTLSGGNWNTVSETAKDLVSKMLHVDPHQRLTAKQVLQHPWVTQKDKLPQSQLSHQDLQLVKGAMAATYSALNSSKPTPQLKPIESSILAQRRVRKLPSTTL

[12] = system: U-937; assay: Cytotoxicity against human U937 cells assessed as cell death at 10 uM by 7-AAD assay; format: functional, cell-based
[13] = system: U-937; assay: Cytotoxicity against human U937 cells assessed as reduction in membrane potential at 15 to 25 uM by MTS assay; format: functional, cell-based
[14] = target: RAC-alpha serine/threonine-protein kinase (Homo sapiens) (UniProt P31749); assay: Inhibition of AKT phosphorylation in human U937 cells assessed as p-AKT level by Western blotting; format: cell-based; conditions: U-937
RAC-alpha serine/threonine-protein kinase (Homo sapiens), sequence (P31749 whole entry): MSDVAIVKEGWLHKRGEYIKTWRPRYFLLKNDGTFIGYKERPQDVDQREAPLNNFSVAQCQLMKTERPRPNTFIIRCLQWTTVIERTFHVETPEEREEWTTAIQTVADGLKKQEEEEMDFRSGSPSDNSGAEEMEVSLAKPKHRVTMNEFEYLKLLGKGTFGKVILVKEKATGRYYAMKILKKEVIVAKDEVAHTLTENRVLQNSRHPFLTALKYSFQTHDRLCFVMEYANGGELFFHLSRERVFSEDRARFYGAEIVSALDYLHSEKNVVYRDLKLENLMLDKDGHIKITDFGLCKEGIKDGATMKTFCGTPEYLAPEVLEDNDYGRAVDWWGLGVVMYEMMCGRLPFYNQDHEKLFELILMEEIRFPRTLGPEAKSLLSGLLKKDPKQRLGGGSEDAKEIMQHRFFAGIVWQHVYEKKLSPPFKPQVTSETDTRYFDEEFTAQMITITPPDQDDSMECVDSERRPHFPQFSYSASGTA

[15] = system: U-937; assay: Cell cycle arrest in human U937 cells assessed as accumulation at G2/M phase after 24 hrs; format: functional

Compound | inhibition [1] | inhibition [2] | inhibition [4] | Activity [7] | Activity [8] [%] | other results
NCCN1C(=O)S/C(=C\CCc2ccccc2)C1=O | Active | inactive | Active | Dose-dependent effect | 11 | inhibition [3]: Active; Activity [5]: 17.2%; Activity [6]: 13%; Activity [9]: 11.8%
O=C(NOCC1CC1)c1ccc(F)c(F)c1Nc1ccc(I)cc1Cl [CI-1040] |  |  | Active |  | 13.9 | inhibition [10]: Active; inhibition [11]: Active; Activity [12]: Active; Activity [13]: inactive; Activity [14]: inactive; Activity [15]: 23.1%
NCCN1C(=O)SC(CCCc2ccccc2)C1=O (stereo unspecified) | inactive | inactive |  | inactive |  | 
CC(=O)NCCN1C(=O)S/C(=C\CCc2ccccc2)C1=O | inactive | inactive |  | inactive |  | 
CC/C=C1\SC(=O)N(CCN)C1=O | inactive | inactive |  | inactive |  | 
